Assays:
recombinant NAMPT = target: T1, recombinant NAMPT (Homo sapiens, UniProt P43490); test: NAMPT activity assay; format: biochemical; details: 500 nM to 160 pM
T1 construct: purchased BPS Bioscience 71276-1
Description: NA-11 was diluted in ultra-pure water at concentrations between 500 nM to 160 pM, and preincubated with recombinant NAMPT for 30 min. NAMPT activity was measured using a fluorescence NAMPT Inhibitor Screening assay kit (BPS Bioscience).

E. coli = test: Phagocytosis assay: E. coli C.F.U. recovered from PMNs; format: cell-based, human; details: neutrophils pretreated 30 min
Description: Neutrophils (1 × 10^6) were cultured in 6-well tissue in RPMI medium containing DMSO vehicle, 0.5 μM NA-11, 0.5 μM NA-4, 100 μM Apocynin or 100 μM thionicotinamide (TN) for 30 min. E. coli grown in LB broth overnight (2 mL) were opsonized with human serum (1 mL pooled from three donors) for 1 h at room temperature. Opsonized bacteria were washed with PBS, resuspended in LB broth to an OD600of 0.1 and then added to cultured neutrophils at an MOI of 1 for 30 min. Cells were washed with medium three times and then cultured with 300 μg/mL gentamicin for 2 h to kill any extracellular bacteria. Cells were then washed again, twice with medium and once with PBS. To release phagocytosed bacteria, neutrophils were lysed in 0.05% saponin in PBS. Lysates were passed through a 25’ gauge needed several times and the number of viable phagocytosed bacteria was determined by colony counting.

MEK or ERK = test: PMA-induced MEK/ERK activation in neutrophils (western blot); format: cell-based, human
Description: Figure S3. Chemoproteomic analysis of covalent crosslinking using photolabeling probe PALP1, related to Figure 2
(A) Volcano plots of the fold change in peptides detected after afﬁnity pull-downs using PALP1 and PALP6. P values were calculated by Student’s t test across
three replicates. (B and C) Spectral counts of all PFKL (B) or TBB4B (C) peptides across replicates (left) or with individual peptides distinguished by color (right). (D)
Activity of recombinant NAMPT. Bars represent the mean ± s.d. of 3 independent experiments. (E) western blots of PMNs pretreated with 0.5 mM NA-11 or 1 mM
MEK1/2 inhibitor U0126 for 30 min, and then activated with 50 nM PMA for 30 min. Results are representative of 3 independent experiments.
(1 picture or pasted object on this page, not shown here)

IL-1β = test: GSDMD-dependent IL-1β release from monocytes; format: cell-based, human; details: nigericin or poly(dA-dT)
Description: Primary human monocytes were primed with 1 μg/mL ultrapure LPS and 1μg/mL Pam3CSK4 for 3 h. THP-1 cells were primed with 1 μg/mL Pam3CSK4 for 4 h. Primed cells (1 × 10^5) were treated for 1 h with DMSO vehicle, 5 μM LDC7559 (unless indicated otherwise), 10 μM MCC950, or 50 μM VX765, and then for 1 h with 10 μg/mL nigericin, or 25 μg/mL LPS (electroporated using the NEON electroporation system; ThermoFisher Scientific), or they were transfected over 3 h with 1 μg/mL poly(dA-dT) using lipofectamine 2000 (0.5 μL/well).
(§1) LDH released into the culture medium was measured 1-3 h post-activation using a CellTox Green Cytotoxicity assay (Promega). IL-1β secretion was measured using a MSD Cytokine Assay, 96-well multi-array Tissue Culture Kit (Meso Scale Discovery). For immunoblotting, monocytes (2 × 10^6) were treated with 10-50 μM LCD7559 or 50 μM VX765 and electroporated with 25 μg/mL LPS using the NEON electroporation system. Cells were lysed after 1 h using lysis buffer (50 mM Tris pH 7.4, 150 mM NaCl, 10% glycerol, 1% NP-40, 1 mM MgCl and 1X Roche cOmplete protease inhibitor cocktail) and protein concentration was determined via BCA protein assay (Peirce). Antibodies for immunoblotting were GSDMD (L60, Cell Signaling Technologies), cleaved GSDMD-Asp275 (E7H9G, Cell Signaling Technologies) and GAPDH (14C10, Cell Signaling Technologies).

GSDMD = target: T2, GSDMD (Homo sapiens, UniProt P57764); test: LPS-induced cleavage of GSDMD in monocytes (western blot); format: cell-based; design: endogenous in cells; host or cells: primary human monocytes electroporated with LPS; details: monocytes electroporated with LPS
T2 sequence (P57764 1-484): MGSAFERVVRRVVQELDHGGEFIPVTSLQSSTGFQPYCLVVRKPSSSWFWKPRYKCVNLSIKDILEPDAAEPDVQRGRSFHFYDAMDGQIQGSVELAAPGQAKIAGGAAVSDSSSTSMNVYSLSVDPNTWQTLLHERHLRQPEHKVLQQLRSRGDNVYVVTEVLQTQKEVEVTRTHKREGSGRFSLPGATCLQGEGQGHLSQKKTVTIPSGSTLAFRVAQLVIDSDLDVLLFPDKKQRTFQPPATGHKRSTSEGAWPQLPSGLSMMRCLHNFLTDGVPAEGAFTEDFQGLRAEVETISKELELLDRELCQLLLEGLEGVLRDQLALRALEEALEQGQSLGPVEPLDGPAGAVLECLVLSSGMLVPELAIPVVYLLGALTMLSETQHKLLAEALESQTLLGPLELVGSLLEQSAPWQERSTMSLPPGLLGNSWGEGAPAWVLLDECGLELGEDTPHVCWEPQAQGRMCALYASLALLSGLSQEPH
Description: as §1

T1 sequence (P43490 whole entry, species assumed): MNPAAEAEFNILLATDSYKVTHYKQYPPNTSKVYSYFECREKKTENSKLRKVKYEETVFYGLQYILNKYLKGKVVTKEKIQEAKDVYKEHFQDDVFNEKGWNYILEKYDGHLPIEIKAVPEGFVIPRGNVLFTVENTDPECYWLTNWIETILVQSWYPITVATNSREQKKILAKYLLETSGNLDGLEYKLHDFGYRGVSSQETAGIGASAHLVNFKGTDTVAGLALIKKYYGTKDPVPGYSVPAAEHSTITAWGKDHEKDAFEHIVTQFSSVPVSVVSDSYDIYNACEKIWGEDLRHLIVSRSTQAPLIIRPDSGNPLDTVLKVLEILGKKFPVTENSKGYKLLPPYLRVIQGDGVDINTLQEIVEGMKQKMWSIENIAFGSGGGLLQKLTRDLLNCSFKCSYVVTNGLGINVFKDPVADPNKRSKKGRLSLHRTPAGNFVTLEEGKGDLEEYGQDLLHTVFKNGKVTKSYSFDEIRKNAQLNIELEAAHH

Structure (SMILES)	activity of recombinant NAMPT (recombinant NAMPT)	killing of phagocytosed bacteria (bacterial colonies recovered) (E. coli)	PMA-induced activation of MEK or ERK (MEK or ERK)	GSDMD-dependent release of IL-1β (IL-1β)	LPS-induced cleavage of GSDMD (GSDMD)
CC(=O)Nc1ccc2c(c1)OCc1cc(-c3ccccc3C#CCCCO)nn1C2 [NA-11]	did not affect the activity of recombinant NAMPT	produced more bacterial colonies than control neutrophils	did not perturb PMA-induced activation of MEK or ERK	–	–
COc1ccccc1-c1cc2n(n1)Cc1ccc(NC(C)=O)cc1OC2 [LDC7559, reference compound]	–	–	–	occurred normally	did not prevent LPS-induced cleavage of GSDMD

From publication PMC8802628, “Selective activation of PFKL suppresses the phagocytic oxidative burst” (Cell, 2021)
